Results as given in patent publication US7704514B2 (priority 2003, dated 2010).
No end group written: not given here.

Assays:
[1] = test system: HCV-peptide specific IFN-γ production by CD4+ and CD8+ T cells; format: in vivo, HLA-A*0201 transgenic mice (HHD.1); details: HHD.1 mice; co-injection of the five HCV-derived peptides (20 μg each) with KLK 10 nmol/o-d(IC)13 0.4 nmol s.c. days 0, 14, 28; day 35
Method: Experimental setup (5 mice/group): • 1. HCV peptides • 2. HCV peptides+KLK+o-d(IC)13
On days 0, 14 and 28 HHD.1 mice were injected s.c. into both hind footpads with a total volume of 100 μl/mouse (50 μl/footpad) containing the above listed compounds. At day 35 (7 days after last vaccination) CD4^+ as well as CD8^+ T cells were isolated by magnetic separation (MACS, Miltenyi) from single cell suspensions of spleen cells. T cells were incubated with medium (background control) or were restimulated with irradiated spleen cells from naïve HHD.1 mice as APC in the presence of either the different peptides used for vaccination or the irrelevant peptide p1274. After overnight incubation, the IFN-γ production was analyzed using an ELIspot assay.

[2] = test system: peptide-specific IFN-γ producing cells; design: species or system C57B1/6 mice; details: mouse, in vivo, sc
Staphylococcus aureus = details: literature (Nakajima 1997; Cho 1999); cited from earlier work
human neutrophils = details: cited from earlier work
[3] = test system: Influenza vaccine (Fluvirin)-specific IgG1 and IgG2b antibodies; design: species or system C57BL/6 mice; details: mouse, in vivo, sc
[4] = test system: HBsAg-specific IFN-γ and IL-4 production; format: in vivo, C57BL/6 mice; details: C57BL/6, s.c. flank day 0 and 56; co-injected with HBsAg 5 μg/mouse; Alum, pR and KLK: after boost
Method: Experimental setup (5 mice/group/timepoint): • 1. HBsAg • 2. HBsAg+Alum • 3. HBsAg+I-ODN 2 • 4. HBsAg+I-ODN 2b • 5. HBsAg+o-d(IC)13 • 6. HBsAg+pR • 7. HBsAg+KLK • 8. HBsAg+pR+I-ODN 2 • 9. HBsAg+pR+I-ODN 2b • 10. HBsAg+pR+o-d(IC)13 • 11. HBsAg+KLK+I-ODN 2 • 12. HBsAg+KLK+I-ODN 2b • 13. HBsAg+KLK+o-d(IC)13
On day 0 and day 56 mice were injected subcutaneously into the right flank with a total volume of 100 μl/mouse containing the above mentioned compounds. The analysis of the immune response was performed at day 7, day 21 and day 50 after first and second injection, respectively. Spleen cells of five mice per group per time point were restimulated ex vivo with 10 μg/ml HBsAg and ELIspot assays were performed in order to analyse the HBsAg-specific IFN-γ (type 1 immune response) as well as IL-4 (type 2 immune response) production.

## CINGVCWTV [p89]
[1]
  IFN-γ produced by CD4+ T cells against the peptide (ELIspot): high amounts
  IFN-γ production by CD8+ T cells against the peptide (ELIspot): strong

## DLMGYIPAV [p87]
[1]
  IFN-γ produced by CD4+ T cells against the peptide (ELIspot): high amounts
  IFN-γ production by CD8+ T cells against the peptide (ELIspot): strong

## GYKVLVLNPSVAAT [p84]
[1]
  IFN-γ produced by CD4+ T cells against the peptide (ELIspot): high amounts

## HMWNFISGIQYLAGLSTLPGNPA [p1426]
[1]
  IFN-γ produced by CD4+ T cells against the peptide (ELIspot): high amounts

## IASNENMETM [p1574, reference compound]
[2]
  peptide-specific IFN-γ spots of spleen cells after restimulation with the respective peptide (ELIspot): do not show any specific spots

## KLKLLLLLKLK-NH2
Staphylococcus aureus
  chemotherapeutic activity in Staphylococcus aureus-infected mice: significant chemotherapeutic activity
Human neutrophils
  production of the superoxide anion (O2−) by human neutrophils via cell surface calreticulin: activated to produce the superoxide anion

## KLKLLLLLKLK-OH
[3]
  Influenza vaccine-specific IgG1 (type 2 response), serum ELISA: induces the production of Influenza vaccine-specific IgG1
  Influenza vaccine-specific IgG2b (humoral type 1 response), serum ELISA: no specific IgG2b response is detectable
[4]
  HBsAg-specific IL-4 production (type 2 immune response) compared to injection of HBsAg alone, spleen cell ELIspot: Slightly increased

## Poly-L-Arginine [pR, reference compound]
[3]
  Influenza vaccine-specific IgG2b (humoral type 1 response), serum ELISA: no specific IgG2b response is detectable
[4]
  HBsAg-specific IL-4 production (type 2 immune response) compared to injection of HBsAg alone, spleen cell ELIspot: Slightly increased

## SSIAAQDAL [p1600]
[2]
  peptide-specific IFN-γ spots of spleen cells after restimulation with the respective peptide (ELIspot): do not show any specific spots

## TMLYNKMEF [p1569]
[2]
  peptide-specific IFN-γ spots of spleen cells after restimulation with the respective peptide (ELIspot): specifically release IFN-γ

## VTILNLALL [p1664]
[2]
  peptide-specific IFN-γ spots of spleen cells after restimulation with the respective peptide (ELIspot): specifically release IFN-γ
